What was measured:
endothelial cell (EC) = experiment: Acidification-induced endothelial cell dysfunction; format: cell-based
Method: FIG. 34A through FIG. 34C: GPR68 plays a central role in acidification-induced endothelial cell (EC) dysfunction in vitro, and OGM2 abrogates EC dysfunction. […] These effects were abolished by OGM2 (OGM) at 3 uM and augmented by GPR68 positive allosteric modulator Ogerin (Og) at 2 uM. *P<0.05; Mann-Whitney test, n=5. FIG. 34C: Medium acidification reduced transendothelial resistance (TER), indicative of disruption of EC barrier function.

U138 spheroids = experiment: GBM spheroid assay; format: cell-based, human
Method: One thousand cells per well were plated in an ultra-low attachment, round-bottomed, 96-well plate, and spheroids were allowed to form for 3 days. Wells were then exposed to concentrations of vehicle, OGM2 or TMZ or a combination for 3 days. Spheroids were imaged in brightfield at 10× using z-stacks that were collapsed into z-projections in the Gen5 software using the LionheartFx (BioTek™). Automated measurements of the spheroid area were obtained using Gen5 software.
Tumor spheroid cultures are a more physiological model of tumor growth than typical 2D cell culture. Temozolomide sensitive U87 (FIG. 20A) and Temozolomide insensitive U138 (FIG. 20B) glioblastoma cell lines were plated in low attachment round bottom 96-well plates and allowed to form tumor spheroids for 3 days (T0). At T0, spheroids were imaged using Lionheart™ (HCS) High-Content Imaging Systems (Biotek™) and then were exposed to increasing doses of either Temozolomide or OGM2. After 5 days of treatment the spheroids were imaged again (T5). The size (area) of the spheroids after 5 days of treatment was quantified, and the average size of the spheroids at TO is depicted in red.

A2058 = experiment: Scratch assay; format: cell-based, human; settings: 20 hours, OGM2 5 uM
DYRK2 = target: T1, DYRK2 (Homo sapiens, UniProt Q92630); experiment: KinomeScan; format: binding; settings: read-out: % Control
T1 construct: purchased DiscoveRx (Fremont, CA), KinomeScan service

TIE1 = target: T2, TIE1 (Homo sapiens, UniProt P35590); experiment: KinomeScan; format: binding; settings: read-out: % Control
T2 construct: purchased DiscoveRx (Fremont, CA)

BRSK1 = target: T3, BRSK1 (Homo sapiens, UniProt Q8TDC3); experiment: KinomeScan; format: binding; settings: read-out: % Control
T3 construct: purchased DiscoveRx (KinomeScan service)

ERBB2 = target: T4, ERBB2 (Homo sapiens, UniProt P04626); experiment: KinomeScan; format: binding; settings: read-out: % Control
T4 construct: purchased DiscoveRx (Fremont, CA)

PIK4CB = target: T5, PIK4CB (Homo sapiens, UniProt Q9UBF8); experiment: KinomeScan; format: binding; settings: read-out: % Control
T5 construct: purchased DiscoveRx (Fremont, CA)

[1] = target: T6, TYK2(JH1domain-catalytic) (Homo sapiens, UniProt P29597); experiment: KinomeScan; format: binding; settings: read-out: % Control
T6 construct: TYK2(JH1domain-catalytic); purchased DiscoveRx

INSRR = target: T7, INSRR (Homo sapiens, UniProt P14616); experiment: KinomeScan; format: binding; settings: read-out: % Control
T7 construct: purchased DiscoveRx (Fremont, CA)

CLK2 = CLK2 (Homo sapiens, UniProt P49760); experiment: KinomeScan; format: binding; settings: read-out: % Control
PAK6 = target: T8, PAK6 (Homo sapiens, UniProt Q9NQU5); experiment: KinomeScan; format: binding; settings: read-out: % Control
T8 construct: purchased DiscoveRx
T8 sequence (Q9NQU5 whole entry): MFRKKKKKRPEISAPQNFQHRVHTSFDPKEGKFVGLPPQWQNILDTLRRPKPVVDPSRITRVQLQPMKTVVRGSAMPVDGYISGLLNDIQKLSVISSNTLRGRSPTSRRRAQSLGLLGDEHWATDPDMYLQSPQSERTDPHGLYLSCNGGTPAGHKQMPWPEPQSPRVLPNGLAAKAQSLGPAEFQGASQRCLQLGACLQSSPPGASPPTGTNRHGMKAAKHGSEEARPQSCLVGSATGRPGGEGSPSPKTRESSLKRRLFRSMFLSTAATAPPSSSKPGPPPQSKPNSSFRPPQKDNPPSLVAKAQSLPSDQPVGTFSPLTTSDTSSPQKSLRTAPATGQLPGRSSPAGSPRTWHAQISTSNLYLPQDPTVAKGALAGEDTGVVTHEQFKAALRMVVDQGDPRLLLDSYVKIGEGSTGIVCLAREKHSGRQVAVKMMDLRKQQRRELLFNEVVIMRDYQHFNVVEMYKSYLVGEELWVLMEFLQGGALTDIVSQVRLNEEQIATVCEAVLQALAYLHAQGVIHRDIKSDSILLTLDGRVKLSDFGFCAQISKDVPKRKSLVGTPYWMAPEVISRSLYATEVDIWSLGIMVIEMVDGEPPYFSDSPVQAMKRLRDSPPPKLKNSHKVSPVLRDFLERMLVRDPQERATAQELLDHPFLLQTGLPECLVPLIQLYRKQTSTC

PLK1 = target: T9, PLK1 (Homo sapiens, UniProt P53350); experiment: KinomeScan; format: binding; settings: read-out: % Control
T9 construct: purchased DiscoveRx (Fremont, CA)
T9 sequence (P53350 whole entry): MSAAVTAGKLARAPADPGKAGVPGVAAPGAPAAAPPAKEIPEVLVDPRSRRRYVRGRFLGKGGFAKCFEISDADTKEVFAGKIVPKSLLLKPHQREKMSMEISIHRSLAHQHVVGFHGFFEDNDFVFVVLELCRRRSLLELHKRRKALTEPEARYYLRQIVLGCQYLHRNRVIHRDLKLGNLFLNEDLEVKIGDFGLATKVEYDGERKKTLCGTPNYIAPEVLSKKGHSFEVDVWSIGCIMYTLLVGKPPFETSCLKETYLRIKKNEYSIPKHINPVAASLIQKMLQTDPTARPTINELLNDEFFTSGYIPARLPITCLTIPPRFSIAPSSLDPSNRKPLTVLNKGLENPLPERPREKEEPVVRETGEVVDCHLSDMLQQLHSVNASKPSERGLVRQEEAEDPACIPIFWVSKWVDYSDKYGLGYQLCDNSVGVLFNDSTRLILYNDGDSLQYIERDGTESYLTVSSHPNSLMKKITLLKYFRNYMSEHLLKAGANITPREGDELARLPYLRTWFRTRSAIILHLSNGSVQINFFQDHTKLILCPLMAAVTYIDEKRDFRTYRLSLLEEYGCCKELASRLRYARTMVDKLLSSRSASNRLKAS

TIE2 = target: T10, TIE2 (Homo sapiens, UniProt Q02763); experiment: KinomeScan; format: binding; settings: read-out: % Control
T10 construct: purchased DiscoveRx (Fremont, CA)

ADRB1 = target: T11, ADRB1 (Homo sapiens, UniProt P08588); experiment: GPCR Profiler; format: cell-based
T11 construct: host or cells: Chem-1 cells with promiscuous Gα15
T11 sequence (P08588 whole entry, species assumed): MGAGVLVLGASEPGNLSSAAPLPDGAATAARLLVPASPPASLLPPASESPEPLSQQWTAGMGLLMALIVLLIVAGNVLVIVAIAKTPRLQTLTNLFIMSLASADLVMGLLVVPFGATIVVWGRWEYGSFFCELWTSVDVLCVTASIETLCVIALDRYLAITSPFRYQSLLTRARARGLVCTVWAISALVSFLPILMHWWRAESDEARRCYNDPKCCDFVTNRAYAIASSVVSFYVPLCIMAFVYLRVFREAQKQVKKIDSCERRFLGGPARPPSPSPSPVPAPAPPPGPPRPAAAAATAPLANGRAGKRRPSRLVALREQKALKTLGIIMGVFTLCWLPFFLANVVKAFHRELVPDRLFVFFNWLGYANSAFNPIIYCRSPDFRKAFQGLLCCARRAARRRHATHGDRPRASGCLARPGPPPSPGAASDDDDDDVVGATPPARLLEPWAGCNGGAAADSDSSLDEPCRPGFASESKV

CDC2L2 = target: T12, CDC2L2 (Homo sapiens, UniProt Q9UQ88); experiment: KinomeScan; format: binding; settings: read-out: % Control
T12 construct: purchased DiscoveRx (KinomeScan service)

PIK3CD = target: T13, PIK3CD (Homo sapiens, UniProt O00329); experiment: KinomeScan; format: binding; settings: read-out: % Control
T13 construct: purchased DiscoveRx (Fremont, CA)

[2] = target: T14, RSK3(Kin.Dom.2-C-terminal) (Homo sapiens, UniProt Q15349); experiment: KinomeScan; format: binding; settings: read-out: % Control
T14 construct: RSK3(Kin.Dom.2-C-terminal); purchased DiscoveRx (Fremont, CA)

DAPK3 = target: T15, DAPK3 (Homo sapiens, UniProt O43293); experiment: KinomeScan; format: binding; settings: read-out: % Control
T15 construct: purchased DiscoveRx (Fremont, CA), KinomeScan service

MCHR2 = target: T16, MCHR2 (Homo sapiens, UniProt Q969V1); experiment: GPCR Profiler; format: cell-based
T16 construct: host or cells: Chem-1 cells expressing Gα15
T16 sequence (Q969V1 whole entry, species assumed): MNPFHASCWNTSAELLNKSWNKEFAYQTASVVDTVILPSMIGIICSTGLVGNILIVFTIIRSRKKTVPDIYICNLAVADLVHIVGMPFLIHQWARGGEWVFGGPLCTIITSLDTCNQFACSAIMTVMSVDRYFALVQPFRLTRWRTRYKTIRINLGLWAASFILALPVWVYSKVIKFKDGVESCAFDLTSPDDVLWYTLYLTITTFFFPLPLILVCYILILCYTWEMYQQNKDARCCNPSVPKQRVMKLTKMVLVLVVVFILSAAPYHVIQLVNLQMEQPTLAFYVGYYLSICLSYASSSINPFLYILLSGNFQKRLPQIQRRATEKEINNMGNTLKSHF

PIK3CA(E542K) = target: T17, PIK3CA(E542K) (Homo sapiens, UniProt P42336, E542K); experiment: KinomeScan; format: binding; settings: read-out: % Control
T17 construct: purchased DiscoveRx (Fremont, CA)

AMPK-alpha1 = target: T18, AMPK-alpha1 (Homo sapiens, UniProt Q13131); experiment: KinomeScan; format: binding; settings: read-out: % Control
T18 construct: purchased DiscoveRx (Fremont, CA)

EGFR(E746-A750del) = target: T19, EGFR(E746-A750del) (Homo sapiens, UniProt P00533, DEL746-750); experiment: KinomeScan; format: binding; settings: read-out: % Control
T19 construct: purchased DiscoveRx (Fremont, CA), KinomeScan service

Secretin = target: T20, Secretin (Homo sapiens, UniProt P47872); experiment: GPCR Profiler; format: cell-based
T20 construct: host or cells: Chem-1 cells with Gα15
T20 sequence (P47872 23-440): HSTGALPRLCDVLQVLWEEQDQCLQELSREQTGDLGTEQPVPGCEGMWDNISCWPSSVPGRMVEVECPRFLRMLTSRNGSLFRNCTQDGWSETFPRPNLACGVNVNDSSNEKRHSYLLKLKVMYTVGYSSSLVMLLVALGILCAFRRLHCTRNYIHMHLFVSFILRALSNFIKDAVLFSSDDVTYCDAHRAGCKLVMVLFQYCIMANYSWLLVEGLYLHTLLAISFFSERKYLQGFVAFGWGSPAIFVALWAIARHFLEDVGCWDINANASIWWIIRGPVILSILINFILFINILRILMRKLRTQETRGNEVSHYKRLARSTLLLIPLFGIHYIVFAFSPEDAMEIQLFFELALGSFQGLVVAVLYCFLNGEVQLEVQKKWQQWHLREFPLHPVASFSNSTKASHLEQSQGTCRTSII

BIKE = target: T21, BIKE (Homo sapiens, UniProt Q9NSY1); experiment: KinomeScan; format: binding; settings: read-out: % Control
T21 construct: purchased DiscoveRx (Fremont, CA)
T21 sequence (Q9NSY1 whole entry): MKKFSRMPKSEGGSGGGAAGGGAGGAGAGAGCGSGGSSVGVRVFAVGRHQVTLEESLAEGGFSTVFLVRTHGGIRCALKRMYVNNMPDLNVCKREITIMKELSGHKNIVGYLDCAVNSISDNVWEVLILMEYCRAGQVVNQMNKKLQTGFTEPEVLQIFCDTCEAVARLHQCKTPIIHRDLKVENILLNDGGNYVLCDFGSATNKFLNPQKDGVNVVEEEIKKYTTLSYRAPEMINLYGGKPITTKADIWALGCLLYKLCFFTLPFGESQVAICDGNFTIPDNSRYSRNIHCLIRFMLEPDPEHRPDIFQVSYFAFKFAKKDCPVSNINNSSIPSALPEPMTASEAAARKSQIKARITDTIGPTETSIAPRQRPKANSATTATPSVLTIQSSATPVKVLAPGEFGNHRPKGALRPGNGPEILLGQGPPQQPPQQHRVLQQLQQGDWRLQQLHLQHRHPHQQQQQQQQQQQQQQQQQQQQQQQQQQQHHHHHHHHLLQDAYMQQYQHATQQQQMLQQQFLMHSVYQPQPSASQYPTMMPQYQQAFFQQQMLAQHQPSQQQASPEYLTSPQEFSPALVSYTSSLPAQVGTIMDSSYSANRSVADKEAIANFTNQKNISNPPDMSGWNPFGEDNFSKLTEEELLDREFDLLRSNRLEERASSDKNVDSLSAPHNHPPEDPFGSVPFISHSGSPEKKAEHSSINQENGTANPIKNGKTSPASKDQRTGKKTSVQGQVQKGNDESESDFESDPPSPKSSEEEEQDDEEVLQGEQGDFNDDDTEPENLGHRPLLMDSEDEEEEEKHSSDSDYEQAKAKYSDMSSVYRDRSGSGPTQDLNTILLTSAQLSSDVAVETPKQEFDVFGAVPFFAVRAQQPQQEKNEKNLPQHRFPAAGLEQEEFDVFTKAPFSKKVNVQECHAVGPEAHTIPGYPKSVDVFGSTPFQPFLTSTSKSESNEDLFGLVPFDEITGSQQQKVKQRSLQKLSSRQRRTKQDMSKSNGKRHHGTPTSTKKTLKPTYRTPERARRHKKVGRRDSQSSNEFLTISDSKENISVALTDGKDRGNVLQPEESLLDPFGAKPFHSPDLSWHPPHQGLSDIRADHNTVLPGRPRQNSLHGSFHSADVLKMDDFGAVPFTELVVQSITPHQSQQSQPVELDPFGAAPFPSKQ

NDR1 = target: T22, NDR1 (Homo sapiens, UniProt Q15208); experiment: KinomeScan; format: binding; settings: read-out: % Control
T22 construct: purchased DiscoveRx

TNNI3K = target: T23, TNNI3K (Homo sapiens, UniProt Q59H18); experiment: KinomeScan; format: binding; settings: read-out: % Control
T23 construct: purchased DiscoveRx (Fremont, CA)
T23 sequence (Q59H18 whole entry): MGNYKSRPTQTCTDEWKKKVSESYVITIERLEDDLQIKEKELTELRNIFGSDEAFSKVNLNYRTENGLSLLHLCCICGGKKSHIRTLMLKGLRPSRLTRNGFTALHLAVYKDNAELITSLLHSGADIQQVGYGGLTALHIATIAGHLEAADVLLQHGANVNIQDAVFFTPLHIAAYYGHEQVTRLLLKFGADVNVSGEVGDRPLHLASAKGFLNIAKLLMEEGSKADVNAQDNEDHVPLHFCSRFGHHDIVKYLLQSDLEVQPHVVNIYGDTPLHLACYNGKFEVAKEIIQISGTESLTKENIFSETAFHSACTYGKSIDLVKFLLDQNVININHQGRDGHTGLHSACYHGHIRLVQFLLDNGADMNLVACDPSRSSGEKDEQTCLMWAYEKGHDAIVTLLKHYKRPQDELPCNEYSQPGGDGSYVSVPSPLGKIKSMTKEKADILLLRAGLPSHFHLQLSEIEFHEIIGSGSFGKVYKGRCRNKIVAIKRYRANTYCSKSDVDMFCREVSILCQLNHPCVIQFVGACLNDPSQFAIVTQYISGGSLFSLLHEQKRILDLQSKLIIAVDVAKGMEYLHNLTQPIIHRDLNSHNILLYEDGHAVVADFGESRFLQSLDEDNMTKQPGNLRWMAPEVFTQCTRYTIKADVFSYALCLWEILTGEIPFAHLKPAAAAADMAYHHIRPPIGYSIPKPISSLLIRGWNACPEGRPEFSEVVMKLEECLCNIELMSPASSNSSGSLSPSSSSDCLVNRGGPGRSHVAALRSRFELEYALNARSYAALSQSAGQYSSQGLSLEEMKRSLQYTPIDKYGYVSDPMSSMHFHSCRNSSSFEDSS

NK3 = target: T24, NK3 (Homo sapiens, UniProt P29371); experiment: GPCR Profiler; format: cell-based
T24 construct: host or cells: Chem-1 cells expressing Gα15
T24 sequence (P29371 whole entry): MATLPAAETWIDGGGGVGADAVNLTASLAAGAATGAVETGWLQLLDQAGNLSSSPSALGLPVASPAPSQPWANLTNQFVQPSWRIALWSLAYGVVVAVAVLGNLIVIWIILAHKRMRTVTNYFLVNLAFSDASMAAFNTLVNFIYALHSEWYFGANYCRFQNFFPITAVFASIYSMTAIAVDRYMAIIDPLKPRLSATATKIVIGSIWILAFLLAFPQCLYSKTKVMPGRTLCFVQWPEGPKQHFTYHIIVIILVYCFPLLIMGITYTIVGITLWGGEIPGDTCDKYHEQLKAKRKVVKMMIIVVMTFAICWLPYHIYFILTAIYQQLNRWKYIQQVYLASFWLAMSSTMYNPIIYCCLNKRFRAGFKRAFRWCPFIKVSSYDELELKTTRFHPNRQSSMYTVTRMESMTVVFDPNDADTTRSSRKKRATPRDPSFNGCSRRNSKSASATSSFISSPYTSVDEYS

`CCc1ccc2c(c1)C1(NN=C(c3ccccc3)S1)C(=O)N2` (stereo not drawn) [OGM2] was tested, and the “TER decline caused by low pH (6.5)” value (endothelial cell (EC); GPR4i 5 uM) was “abolished TER decline”, the “acidic media (pH 6.5)-induced TNFα, VCAM1 and ICAM1 expression” value (endothelial cell (EC); OGM2 3 uM, Ogerin 2 uM) was “abolished” and the “growth of 3D spheroids” value (U138 spheroids) was “significantly decreased the growth of U138 3D spheroids”. The migration (A2058) was “inhibited migration”.
Work on `CCc1ccc2c(c1)C1(NN=C(c3cccc4ccccc34)S1)C(=O)N2` (stereo not drawn) [OGM1, 5-ethyl-5′-naphthalen-1-ylspiro[1H-indole-3,2′-3H-1,3,4-thiadiazole]-2-one] yielded a remaining binding at 10 µM (DYRK2) of 91%, a remaining binding at 10 µM (TIE1) of 94% and a remaining binding at 10 µM (BRSK1) of 100%. For the same compound, the remaining binding at 10 µM (ERBB2) was 65%, the remaining binding at 10 µM (PIK4CB) was 71% and the remaining binding at 10 µM [1] was 77%. The remaining binding at 10 µM (INSRR) was 100%, the remaining binding at 10 µM (CLK2) was 61% and the remaining binding at 10 µM (PAK6) was 89%. It also gave a remaining binding at 10 µM (PLK1) of 100%, a remaining binding at 10 µM (TIE2) of 100% and an Antagonism (ADRB1; 10 uM) of −9.6. It also gave an Agonism (ADRB1; 12.5 uM) of −1.3, a remaining binding at 10 µM (CDC2L2) of 93% and a remaining binding at 10 µM (PIK3CD) of 55%. The remaining binding at 10 µM [2] was 54%, the remaining binding at 10 µM (DAPK3) was 91% and the Antagonism (MCHR2; 10 uM) was −8.2. It also gave an Agonism (MCHR2; 12.5 uM) of 0.3, a remaining binding at 10 µM (PIK3CA(E542K)) of 73% and a remaining binding at 10 µM (AMPK-alpha1) of 100%. For the same compound, the remaining binding at 10 µM (EGFR(E746-A750del)) was 100%, the Antagonism (Secretin; 10 uM) was 1.7 and the Agonism (Secretin; 12.5 uM) was 0.9. For the same compound, the remaining binding at 10 µM (BIKE) was 88%, the remaining binding at 10 µM (NDR1) was 98% and the remaining binding at 10 µM (TNNI3K) was 100%. It also gave an Antagonism (NK3; 10 uM) of −3 and an Agonism (NK3; 12.5 uM) of 0.5.

Source: patent publication US20240327364A1, “THERAPEUTIC TARGETING OF GPR68 TO INDUCE FERROPTOSIS” (University Of Maryland, Baltimore, priority 2023, published 2024)
